According to ChEMBL document CHEMBL1201862, “PubChem BioAssay data set” (2004):
Active and inactive are the calls of the source.

Key:
[1] = biological target: Cytochrome P450 2D6 (Homo sapiens, UniProt P10635);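 further: CYP2D6 member of a cytochrome P450 panel assay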
[2] = biological target: Cytochrome P450 2C19 (Homo sapiens, UniProt P33261); test: Cytochrome panel assay with activity outcomes. Panel member name: p450-cyp2c19 Compounds with AC50 equal or less than 10 uM are considered active; type: functional; details: read-out: AC50
[3] = biological target: Cytochrome P450 2C9 (Homo sapiens, UniProt P11712)
[4] = luciferase reporter signal suppression in cells – H4 neuroglioma cells, luminescence, dose response (AID 1990); type: functional, cell-based
[5] = Luminescence Cell-Based Dose Response HTS to Identify Inhibitors of 5'UTR Stem-Loop Driven Prion Protein mRNA Translation in H4 Neuroglioblastoma Cells. [Related pubchem assays: 1827 (Project Summary), 1813 (Primary HTS)]; type: functional
[6] = alpha-synuclein stem-loop luciferase translation blockers – H4 neuroglioma cells, luminescence, confirmation (AID 1988); type: functional, cell-based
[7] = Luminescence Cell-Based Dose Retest to Confirm Inhibitors of Cancer Stem Cells. [Related pubchem assays (depositor defined):AID2717, AID2721]; type: functional; details: Homo sapiens
[8] = biological target: T1, Cytochrome P450 1A2 (Homo sapiens, UniProt P05177);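 further: PubChem cytochrome P450 panel assay, CYP1A2 panel member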
T1 sequence (P05177 whole entry): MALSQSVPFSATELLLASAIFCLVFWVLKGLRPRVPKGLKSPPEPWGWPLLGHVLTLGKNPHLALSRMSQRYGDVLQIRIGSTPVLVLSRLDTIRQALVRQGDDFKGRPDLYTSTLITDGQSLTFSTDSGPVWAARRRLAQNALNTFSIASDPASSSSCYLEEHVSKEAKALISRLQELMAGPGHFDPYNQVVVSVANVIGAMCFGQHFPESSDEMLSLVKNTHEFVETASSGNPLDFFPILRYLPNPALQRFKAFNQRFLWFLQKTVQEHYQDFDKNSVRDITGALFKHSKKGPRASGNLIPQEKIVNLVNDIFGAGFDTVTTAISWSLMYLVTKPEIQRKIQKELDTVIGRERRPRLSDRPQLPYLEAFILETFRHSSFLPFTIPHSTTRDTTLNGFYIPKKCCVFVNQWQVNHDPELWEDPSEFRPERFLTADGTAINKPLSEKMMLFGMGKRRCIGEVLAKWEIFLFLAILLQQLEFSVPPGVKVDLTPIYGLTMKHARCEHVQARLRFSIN

[9] = biological target: Cytochrome P450 3A4 (Homo sapiens, UniProt P08684);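 further: CYP3A4 tested as one member of a cytochrome P450 panel screen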
[10] = Trypanosoma cruzi growth suppression in host cells – NIH3T3 host cells, beta-gal luminescence, confirmation (AID 2044); type: functional, cell-based;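 further: intracellular parasites grown in NIH/3T3 mouse fibroblasts as host cells; luminescent beta-galactosidase reporter signal from transgenic T. cruzi replicating inside host cells; inhibitors lower the luminescence signal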
[11] = NIH3T3 cell viability loss – ATP luminescence, mouse fibroblasts, counter-screen, dose response (AID 2010); type: functional, cell-based;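 further: cells exposed to compound for about 90 hours before reading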
[12] = test system: Streptococcus sp. 'group A'; test: Streptococcus pyogenes SK(-)GAS viability under kanamycin – luminescence, BacTiterGlo, confirmation, counter-screen for streptokinase expression inhibitor project, dose response (AID 1900); type: functional, organism-based
[13] = biological target: T2, Streptokinase A (Streptococcus pyogenes serotype M1, UniProt P10520); test: viability-normalized secreted streptokinase activity reduction – plasminogen activation absorbance, OD405, dose response (AID 1914); type: functional, Streptococcus pyogenes M1 GAS;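 further: secreted streptokinase activity via plasminogen activation per viability signal from cell pellet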
T2 sequence (P10520 whole entry): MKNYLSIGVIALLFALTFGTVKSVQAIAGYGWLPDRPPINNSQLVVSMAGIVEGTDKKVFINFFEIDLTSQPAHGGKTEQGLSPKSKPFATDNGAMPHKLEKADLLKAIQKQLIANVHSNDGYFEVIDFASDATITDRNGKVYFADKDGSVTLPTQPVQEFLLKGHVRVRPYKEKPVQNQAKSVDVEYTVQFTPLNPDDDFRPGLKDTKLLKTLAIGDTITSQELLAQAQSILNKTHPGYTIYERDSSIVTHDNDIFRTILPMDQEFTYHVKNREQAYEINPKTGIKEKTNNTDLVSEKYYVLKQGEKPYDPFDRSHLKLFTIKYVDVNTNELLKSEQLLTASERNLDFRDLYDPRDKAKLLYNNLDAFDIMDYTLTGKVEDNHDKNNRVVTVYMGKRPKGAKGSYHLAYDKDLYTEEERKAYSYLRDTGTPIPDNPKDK

[14] = test system: Streptococcus; test: GAS UMAA2166 growth inhibition – luminescence, BacTiterGlo, counter-screen for streptokinase expression inhibitor project, dose response (AID 1915); type: functional, organism-based;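 further: potency for reduction of bacterial viability or growth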
[15] = test system: INS1; test: INS-1E survival protection against cytokine death – cell-based, luminescence, retest, dose response (AID 449756); type: functional; details: Rattus norvegicus;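 further: cell death triggered by IL-1 beta plus TNF-alpha plus IFN-gamma mixture; protective hits raise ATP signal compared with cytokine alone wells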

Cytochrome P450 3A4, sequence (P08684 whole entry): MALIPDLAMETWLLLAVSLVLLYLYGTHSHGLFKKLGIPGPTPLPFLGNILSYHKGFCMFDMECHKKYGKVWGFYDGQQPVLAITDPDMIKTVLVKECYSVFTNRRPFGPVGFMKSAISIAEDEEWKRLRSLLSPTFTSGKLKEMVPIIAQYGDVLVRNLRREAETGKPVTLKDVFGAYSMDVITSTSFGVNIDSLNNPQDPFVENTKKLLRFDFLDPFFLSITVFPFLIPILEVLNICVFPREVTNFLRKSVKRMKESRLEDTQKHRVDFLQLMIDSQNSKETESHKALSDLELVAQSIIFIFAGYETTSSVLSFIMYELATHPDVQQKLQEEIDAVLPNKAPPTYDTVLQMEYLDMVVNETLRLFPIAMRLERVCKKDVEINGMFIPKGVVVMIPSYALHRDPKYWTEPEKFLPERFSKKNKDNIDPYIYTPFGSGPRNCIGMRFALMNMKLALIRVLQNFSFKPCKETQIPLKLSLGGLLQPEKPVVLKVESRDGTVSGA
Cytochrome P450 2C9, sequence (P11712 whole entry): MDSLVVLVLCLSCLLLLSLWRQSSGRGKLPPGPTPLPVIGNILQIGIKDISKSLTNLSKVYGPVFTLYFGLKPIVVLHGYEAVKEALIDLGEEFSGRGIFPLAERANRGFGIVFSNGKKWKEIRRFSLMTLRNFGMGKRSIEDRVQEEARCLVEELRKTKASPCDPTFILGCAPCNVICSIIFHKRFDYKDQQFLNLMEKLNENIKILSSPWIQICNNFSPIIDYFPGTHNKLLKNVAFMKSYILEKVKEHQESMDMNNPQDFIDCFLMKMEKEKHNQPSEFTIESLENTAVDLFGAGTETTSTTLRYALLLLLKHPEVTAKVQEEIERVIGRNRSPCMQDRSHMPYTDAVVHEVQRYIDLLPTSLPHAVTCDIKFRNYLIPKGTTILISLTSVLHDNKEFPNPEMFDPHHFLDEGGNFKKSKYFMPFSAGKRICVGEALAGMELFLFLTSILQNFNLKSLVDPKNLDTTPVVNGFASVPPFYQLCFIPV
Cytochrome P450 2C19, sequence (P33261 whole entry): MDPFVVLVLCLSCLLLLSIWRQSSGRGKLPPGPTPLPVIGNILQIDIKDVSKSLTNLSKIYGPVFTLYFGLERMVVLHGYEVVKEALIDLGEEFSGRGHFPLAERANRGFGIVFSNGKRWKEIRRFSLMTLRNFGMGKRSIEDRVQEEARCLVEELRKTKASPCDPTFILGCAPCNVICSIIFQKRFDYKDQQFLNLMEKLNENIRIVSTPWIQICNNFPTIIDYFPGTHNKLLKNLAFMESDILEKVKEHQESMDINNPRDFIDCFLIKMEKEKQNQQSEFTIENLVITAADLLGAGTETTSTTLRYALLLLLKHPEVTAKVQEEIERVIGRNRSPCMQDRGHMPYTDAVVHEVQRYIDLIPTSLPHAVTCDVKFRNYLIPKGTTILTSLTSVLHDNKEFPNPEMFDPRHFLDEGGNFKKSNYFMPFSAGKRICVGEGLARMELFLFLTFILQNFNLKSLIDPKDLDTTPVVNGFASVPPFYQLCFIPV
Cytochrome P450 2D6, sequence (P10635 whole entry): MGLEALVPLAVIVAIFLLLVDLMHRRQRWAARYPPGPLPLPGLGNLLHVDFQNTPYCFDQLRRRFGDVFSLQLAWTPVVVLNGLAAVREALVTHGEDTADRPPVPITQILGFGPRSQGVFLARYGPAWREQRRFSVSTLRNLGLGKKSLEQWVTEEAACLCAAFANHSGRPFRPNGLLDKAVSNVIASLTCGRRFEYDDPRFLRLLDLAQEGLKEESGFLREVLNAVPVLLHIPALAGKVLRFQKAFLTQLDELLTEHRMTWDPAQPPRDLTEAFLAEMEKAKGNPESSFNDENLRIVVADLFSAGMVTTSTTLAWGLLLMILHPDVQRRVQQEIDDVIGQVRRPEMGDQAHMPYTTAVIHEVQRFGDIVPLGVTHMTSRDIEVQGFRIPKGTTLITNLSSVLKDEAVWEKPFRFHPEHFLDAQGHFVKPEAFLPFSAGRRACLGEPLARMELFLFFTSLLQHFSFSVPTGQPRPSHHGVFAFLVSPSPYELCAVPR

CCCN1CC[C@@H]2c3cc(O)ccc3CC[C@H]21
AC50 [1]: 31.6 µM (inconclusive)

CCSc1nnc(C(N)Cc2ccccc2)o1 (centres undefined)
AC50 [2]: 28.2 µM (inconclusive) | AC50 [1]: 17.8 µM (inconclusive) | AC50 [3]: 2.24 µM (inconclusive)

O=c1cc(CNc2cc(C(F)(F)F)cc(C(F)(F)F)c2)nc2sccn12
EC50 [4]: 17.5 µM (active) | EC50 [5]: 39.2 µM (active) | EC50 [6]: > 120 µM (not active) | AC50 [7]: 1.99 µM (active)

COc1ccc(NC(=O)N2CCC3(CC2)CCN(S(=O)(=O)c2ccccc2)CC3)cc1
AC50 [1]: 25.1 µM (inconclusive) | AC50 [8]: 31.6 µM (inconclusive) | AC50 [9]: 20 µM (inconclusive)

O=P(c1ccccc1)(c1ccccc1)N1CC2(CC2)CC(O)(c2ccccc2)C1 (centres undefined)
AC50 [1]: 20 µM (inconclusive) | AC50 [3]: 39.8 µM (inconclusive)

COc1ccc2nc(O)c(CN(CCO)C(=O)c3cccs3)cc2c1
AC50 [2]: 31.6 µM (inconclusive) | AC50 [8]: 20 µM (inconclusive) | AC50 [9]: 15.8 µM (inconclusive)

N#Cc1c(NC(=O)Cn2c(=O)oc3ccccc32)oc(-c2ccccc2)c1-c1ccccc1
AC50 [7]: 1.97 µM (active)

COc1cccc2[nH]c3c(N4CC(C)CC(C)C4)ncnc3c12 (centres undefined)
EC50 [10]: 1.39 µM (active) | EC50 [11]: > 60 µM (not active) | AC50 [9]: 0.891 µM (inconclusive)

C=CCC[C@H](Cc1ccc(F)cc1)C(=O)O[C@H](CNC(=O)[C@@H](CC=C)CC(=O)N(CCO)Cc1ccccc1)c1ccccc1
AC50 [7]: 7.34 µM (active)

Cc1ccccc1C(=O)N=c1nc(S)ss1
EC50 [12]: 2.81 µM (active) | EC50 [13]: 2.04 µM (active) | EC50 [14]: 36.5 µM (active)

COc1ccccc1C1(CC(=O)Nc2nccs2)CCOC(C(C)C)C1 (centres undefined)
AC50 [1]: 22.4 µM (inconclusive) | AC50 [8]: 5.62 µM (inconclusive)

O=C(CC1NCCc2ccccc21)Nc1ccc(Oc2ccccc2)cc1 (centres undefined)
AC50 [7]: 7.35 µM (active)

Oc1cc(-c2ccc(N3CCCCC3)nc2)cc2cccnc12
AC50 [15]: 3.18 µM (active)

Cc1nn(Cc2ccc(Cl)cc2Cl)c(C)c1NC(=O)c1sc2ccccc2c1Cl
AC50 [2]: 22.4 µM (inconclusive) | AC50 [8]: 25.1 µM (inconclusive) | AC50 [3]: 1.78 µM (inconclusive)

CCCOc1c(Cl)cc(C(=O)Nc2ccc3c(c2)OCO3)cc1OCC
AC50 [7]: 2.39 µM (active)

Cc1ccc(NC(=O)Nc2cccc([N+](=O)[O-])c2)cc1F
EC50 [10]: 2.49 µM (active) | EC50 [11]: > 60 µM (not active) | AC50 [15]: 6.65 µM (active)

NC(=O)OCC(COC(N)=O)c1ccccc1 [FELBAMATE]
AC50 [8]: 39.8 µM (inconclusive)

Cc1sc2ncnc(SCC(=O)N3CCCC(C(F)(F)F)C3)c2c1C (centres undefined)
EC50 [12]: > 150 µM (not active) | EC50 [13]: > 150 µM (not active) | EC50 [14]: > 150 µM (not active)

CCCN(CCC)CCCNC(=O)c1ccc2c(c1)N(CC)C(=O)c1ccccc1[S+]2[O-] (centres undefined)
AC50 [1]: 22.4 µM (inconclusive) | AC50 [8]: 0.01 µM (inconclusive)

Cc1ccc(O)c(C(=O)c2cc(C#N)c(=O)n(-c3c(C)n(C)n(-c4ccccc4)c3=O)c2)c1
AC50 [1]: 10 µM (inconclusive)

Fc1cc(F)c(C2SCCN2C(=S)Nc2cccc(C(F)(F)F)c2)c(F)c1 (centres undefined)
EC50 [12]: 6.86 µM (active) | EC50 [13]: 11.1 µM (active) | EC50 [14]: > 150 µM (not active)

COc1ccc(/C=C(/C#N)C(=O)Nc2cc(C)ccc2C)cc1C(=O)O
AC50 [1]: 25.1 µM (inconclusive)

Cc1cc(C(C)(C)C)ccc1OCCCCN1CCCC1
AC50 [7]: 2.57 µM (active)

CC(CNC(=O)c1ccc(OC2CCN(Cc3ccccn3)CC2)cc1)Oc1cccnc1 (centres undefined)
AC50 [15]: 5.59 µM (active)

CCN(CC)C(=O)CSc1nnc(-c2ccncc2)n1N
AC50 [1]: 17.8 µM (inconclusive) | AC50 [3]: 31.6 µM (inconclusive)

Nc1c(Cl)cc(-c2csc(N3CCCC3c3nc4cc(Cl)c(Cl)cc4n3CCOCCO)n2)cc1Cl (centres undefined)
EC50 [12]: > 150 µM (not active) | EC50 [13]: > 150 µM (not active) | EC50 [14]: > 150 µM (not active)

O=C(c1nc2ccc(Cl)cn2c1CN1CCC(CO)CC1)N1CCc2ccccc2C1
EC50 [12]: > 150 µM (not active) | EC50 [13]: > 150 µM (not active) | EC50 [14]: > 150 µM (not active)

COC(=O)c1ccc(NC(=O)c2cccnc2)cc1
AC50 [15]: 5.28 µM (active)

CCN(Cc1ccccc1)c1ccc(/C=N/NC(=S)NC(C)C)cc1
AC50 [7]: 31.1 µM (active)

O=C(O)/C=C\C=C/c1ccc2c(c1)OCO2
AC50 [8]: 1.58 µM (inconclusive)

Cc1ccc(NC(=O)c2c(C(F)(F)F)nn(C)c2SCc2cccc(C(F)(F)F)c2)cc1C
EC50 [10]: 2.52 µM (active) | EC50 [11]: > 60 µM (inconclusive) | AC50 [15]: 5.94 µM (active) | AC50 [1]: 14.1 µM (inconclusive)

Cc1nnc(NC(=O)c2ccc(S(=O)(=O)N3CC(C)CC(C)C3)cc2)o1 (centres undefined)
EC50 [12]: 7.28 µM (active) | EC50 [13]: > 150 µM (not active) | EC50 [14]: 21 µM (active)

COc1cccc(C(=O)Nc2nnc(-c3cccs3)o2)c1
EC50 [12]: 9.25 µM (active) | EC50 [13]: > 150 µM (not active) | EC50 [14]: 18.9 µM (active)

O=C(CCC(=O)Nc1ccc(Br)cc1)N/N=C/c1ccccc1O
EC50 [4]: 12.6 µM (active) | EC50 [12]: 5.1 µM (active) | EC50 [5]: 33.8 µM (active) | EC50 [6]: 8.55 µM (active) | EC50 [13]: > 150 µM (not active) | EC50 [14]: 14.3 µM (active) | AC50 [15]: 3.65 µM (active)

O=C(NCCN1CCCC1)C1(S(=O)(=O)c2ccc(Cl)cc2)CC1
AC50 [2]: 25.1 µM (inconclusive) | AC50 [1]: 12.6 µM (inconclusive) | AC50 [9]: 39.8 µM (inconclusive)

Oc1c(Cl)cc(CN(Cc2cc(Cl)c(O)c(Cl)c2)C2CCCCC2)cc1Cl
AC50 [1]: 5.01 µM (inconclusive) | AC50 [3]: 3.98 µM (inconclusive)

COC(=O)C1=C(C)N=C2SC(C)C(=O)N2C1/C=C/c1ccccc1 (centres undefined)
AC50 [1]: 28.2 µM (inconclusive)

CCCC[N+]1(C)[C@@H]2CC(OC(=O)[C@@H](CO)c3ccccc3)C[C@H]1[C@H]1O[C@H]12 (some centres undefined)
AC50 [1]: 7.94 µM (inconclusive)

Cn1cccc1C1C=C(c2ccc(C(C)(C)C)cc2)Nc2ncnn21 (centres undefined)
AC50 [15]: 3.45 µM (active)

C[C@@H](CN1CCC(Cc2ccccc2)CC1)[C@@H](O)c1ccc(O)cc1
AC50 [8]: 39.8 µM (inconclusive)

Cc1cccc(NCCNc2cccc(C)c2)c1
AC50 [1]: 12.6 µM (inconclusive) | AC50 [3]: 17.8 µM (inconclusive)

c1cnc(N2CCC3(CCNCC3)CC2)nc1
AC50 [1]: 10 µM (inconclusive) | AC50 [9]: 20 µM (inconclusive)

O=c1[nH]c2cc(Cl)ccc2c(O)c1-c1cccc(Oc2ccccc2)c1
AC50 [2]: 31.6 µM (inconclusive) | AC50 [8]: 2.51 µM (inconclusive)

O=C(Nc1cccc(F)c1)N1CC[C@@]2(CCCN(S(=O)(=O)c3ccccc3)C2)C1
AC50 [1]: 39.8 µM (inconclusive) | AC50 [8]: 15.8 µM (inconclusive)

CN1CCN(c2ncc3nc(-c4ccccc4)c(=O)n(C)c3n2)CC1
AC50 [8]: 15.8 µM (inconclusive)
